Assay results from US20190083420A1, “METHODS OF USING (2R, 6R)-HYDROXYN[…] (2S, 6S)-HYDROXYN[…] THE TREATMENT OF DEPRESSION, ANXIETY, ANHEDONIA, FATIGUE, SUICIDAL IDEATION, AND POST TRAUMATIC STRESS DISORDERS” (The Uinited States of America, as represented by the …, priority 2016, published 2019).

What was measured:
male CD-1 mice [1] = test: Learned helplessness (LH); type: in vivo; conditions: single injection; for antidepressant-like effect in learned helplessness (escape failures): test 24 hours after administration
Source text: (§1) Male CD-1 mice (8-10 weeks old, Charles River Laboratories, Mass., USA) were housed in groups of four-five per cage with a constant 12-hour light/dark cycle (lights on/off at 07:00/19:00). Food and water were available ad libitum. Mice acclimatized to the new environment for seven days prior to the start of the experiments. For the whole-cell NMDA current electrophysiological recordings, male Sprague-Dawley rats (housed three per cage; Charles River, Wilmington, Mass.) were used. EPSC recording were done from rats at postnatal day 24-25. All experimental procedures were approved by the University of Maryland, Baltimore Animal Care and Use Committee and were conducted in full accordance with the National Institutes of Health Guide for the Care and Use of Laboratory Animals.
The LH paradigm consisted of three different phases, i.e., inescapable shock training, LH screening, and the LH test. For the inescapable shock portion of the test (Day 1), the animals were placed in one side of two-chambered shuttle boxes (34 cm height×37 cm width×18 cm depth; Coulbourn Instruments, PA, USA), with the door between the chambers closed. Following a five-min adaptation period, 120 inescapable foot-shocks (0.45 mA, 15 sec duration, randomized average inter-shock interval of 45 sec) were delivered through the grid floor. During the screening session (Day 2), the mice were placed in one of the two chambers of the apparatus for 5 min. A shock (0.45 mA) was then delivered, and the door between the two chambers was raised simultaneously. Crossing over into the second chamber terminated the shock. […] A total of 30 screening trials of escapable shocks were presented to each mouse with an average of 30 sec delay between each trial. Mice that developed helplessness behavior (>5 escape failures during the last 10 screening shocks) were administered with the respective drug 24 hours following screening (Day 3). During the LH test phase (Day 4), the animals were placed in the shuttle boxes and, after a 5-min adaptation period, a 0.45 mA shock was delivered concomitantly with door opening for the first five trials, followed by a 2-sec delay for the next 40 trials. Crossing over to the second chamber terminated the shock. […] A total of 45 trials of escapable shock were presented to each mouse with 30 sec inter-trial intervals. The number of escape failures was recorded for each mouse.

mice [2] = test: Open field test (locomotor activity); type: in vivo; conditions: 1 hour after i.p. drug
Description: Mice were placed into individual open-field arenas (50 cm length×50 cm width×38 cm height; San Diego Instruments, San Diego, Calif., USA) for a 60-min habituation period. Mice were then injected with the respective drug and assessed for locomotor activity for another 60 min. Distance travelled was analyzed using TopScan v2.0 (CleverSys, Inc, Reston, Va., USA).

mice [3] = test: Accelerating rotarod (motor coordination); type: in vivo; conditions: 5-60 min post-injection, i.p.
Description: The rotarod test was conducted to compare the effects of ketamine, (2S,6S)-HNK and (2R,6R)-HNK on motor coordination. The experiment consisted of two phases: training phase (4 days) and a test phase (1 day). On each of the training days five trials (trial time: 3 min) were conducted with an inter-trial interval of two min Mice were individually placed on the rotarod apparatus (HTC Life Science; Woodland Hills, Calif., USA) and the rotor (3.75 inch diameter) accelerated from 5-20 RPM over a period of three minutes. Latency to fall was recorded for each trial. Animals with an average of <100 sec of latency to fall during the last training day were excluded from the experiment. On the test day (day 5), mice received (i.p.) injections of saline, (R,S)-KET (10 mg/kg), (2S,6S)-HNK (25 or 125 mg/kg) or (2R,6R)-HNK (2.5 or 125 mg/kg) and were tested in the rotating rod 5-. 10-, 15-, 20-, 30- and 60-min post-injection using the same procedure described for the training days.

[4] = Tissue distribution of ketamine and metabolites (plasma and brain levels)
Description: Mice were euthanized by a 30-sec exposure to 3% isoflurane and decapitated at 10, 30, 60, 240 or 480 minutes following drug administration. Trunk blood was collected in EDTA-containing tubes and centrifuged at 8000 rpm for 6 min (4° C.). Plasma was collected and stored at −80° C. until analysis. Whole brains were simultaneously collected, rinsed with phosphate-buffered saline, immediately frozen in dry ice and stored at −80° C. until analysis.
The concentrations of ketamine and its metabolites in plasma and brain tissue were determined by achiral liquid chromatography-tandem mass spectrometry. For plasma samples, the calibration standards for (R,S)-ketamine, (R,S)-norketamine, (2R,6R;2S,6S)-HNK and (R,S)-DHNK ranged from 10,000 ng/ml to 19 ng/ml. The quantification of (R,S)-ketamine, (R,S)-norketamine, (R,S)-DHNK, and the HNK stereoisomers was accomplished by calculating area ratios using D4-ketamine (10 μl of 10 μg/ml solution) as the internal standard. Whole brains were suspended in 990 μl of water:methanol (3:2, v/v), D4-ketamine (10 μl of 10 μg/ml) added and the resulting mixture homogenized on ice with a polytron homogenizer and centrifuged at 21,000×g for 30 min. The supernatant was collected and processed using 1 ml Oasis HLB solid phase extraction cartridges (Waters Corp., Waltham, Mass.). The cartridges were preconditioned with 1 ml of methanol, followed by 1 ml of water and then 1 ml ammonium acetate [10 mM, pH 9.5]. The supernatants were added to the cartridges, followed by 1 ml of water and the compounds were eluted with 1 ml of methanol. The eluent was transferred to an autosampler vial for analysis. QC standards for the analysis of (R,S)-ketamine, (R,S)-norketamine, (R,S)-DHNK and (2R,6R;2S,6S)-HNK ranged from 10,000 ng/ml to 19 ng/ml, and quantification was accomplished using D4-(R,S)-ketamine as the internal standard. QC standards were prepared daily by adding 10 μl of the appropriate standard solution and 10 μl of internal standard solution (100 ng/ml) to methanol.

[5] = plasma of humans; cited from earlier work
male CD-1 mice [6] = test: Forced-swim test (FST); type: in vivo; conditions: 1- and 24-hours post-injection, times not separated, i.p.
Source text: as §1
Mice were tested in the FST 1 hour and/or 24 hours post-injection. During the FST, mice were subjected to a 6-min swim session in clear Plexiglass cylinders (30 cm height×20 cm diameter) filled with 15 cm of water (23±1° C.). The FST was performed in normal light conditions (800 Lux). Sessions were recorded using a digital video-camera. Immobility time, defined as passive floating with no additional activity other than that necessary to keep the animal's head above water, was scored for the last 4 min of the 6-min test by a trained observer blind to the treatment.
All drugs were dissolved in 0.9% saline, and administered intraperitoneally (i.p.) in a volume of 7.5 ml/kg of body mass. Corticosterone (4-pregnen-11β, 21-diol-3, 20-dione 21-hemisuccinate; Steraloids, Newport, R.I., USA) was dissolved in tap water. For the electrophysiology recordings, test drugs were diluted in artificial cerebrospinal fluid (AC SF).

male CD-1 mice [7] = test: Novelty-suppressed feeding (NSF); type: in vivo; conditions: i.p.
Source text: as §1
Mice were singly housed and food-deprived for twenty-four hours in freshly-made home-cages. Two normal chow diet pellets were placed on a square food platform (10×10 cm) in the center of an open-field arena (40×40 cm). […] The time needed for the mice to take a bite of food was recorded over a 10 min period by a trained observer blind to the treatment groups. After the test, the mice were returned to their home cage containing pre-weighed food pellets, and latency to bite the food as well as consumption was recorded for a period of 10 min.

NMDA receptor = conditions: (S)-ketamine versus (R)-ketamine; cited from earlier work

Compound: N[C@]1(c2ccccc2Cl)CCC[C@H](O)C1=O [(2S,6S)-HNK, (2S,6S)-2-amino-2-(2-chlorophenyl)-6-hydroxycyclohexanone]
- doses with antidepressant-like effects in learned helplessness (male CD-1 mice [1]): 75 mg/kg
- antidepressant-like effect in learned helplessness (escape failures) (male CD-1 mice [1]): induced antidepressant-like effects
- locomotor activity in the open-field test (mice [2]): increased locomotor activity
- locomotor activity in the open-field test (mice [2]; listed as (2S,6S)-hydroxynorketamine): dose-dependently changed locomotor activity
- motor coordination in the rotarod (mice [3]): motor incoordination
- motor coordination in the rotarod (mice [3]; listed as (2S,6R)-HNK): induced motor incoordination
- brain hydroxynorketamine levels after administration of (2S,6S)-HNK versus (2R,6R)-HNK ([4]; brain): higher brain hydroxynorketamine levels compared to (2R,6R)-HNK

Compound: N[C@@]1(c2ccccc2Cl)CCC[C@@H](O)C1=O [(2S,6S;2R,6R)-HNK, (2S,6S;2R,6R)-hydroxynorketamine]
- brain levels following ketamine administration, female mice compared to males ([4]; brain): three fold higher
- metabolite found in plasma and brain following ketamine administration ([4]; mice, (R,S)-KET 10 mg/kg i.p.): major HNK metabolite
- metabolite found in plasma following ketamine administration [5]: major HNK metabolite

Compound: CN[C@@]1(c2ccccc2Cl)CCCCC1=O [(R)-ketamine, reference compound]
- antidepressant effect in the FST (immobility time) (male CD-1 mice [6]): greater potency
- antidepressant-like effect in novelty-suppressed feeding (latency to feed) (male CD-1 mice [7]): greater potency
- antidepressant-like effect in learned helplessness (escape failures) (male CD-1 mice [1]): greater potency
- brain levels of (R)-ketamine compared to (S)-ketamine ([4]; brain, after (S)- and (R)-KET): does not result from higher brain levels

Compound: CN[C@]1(c2ccccc2Cl)CCCCC1=O [(S)-ketamine]
- potency as inhibitor of the NMDA receptor relative to (R)-ketamine (NMDA receptor): ~4 fold
